The nature of series [1]: Other systemic effects and post mortem examination. To be noted: for systemic changes (palsies, coat, dyspnoea, death, post mortem lesions): 3 weeks feeding. Format: in vivo, rat. Here is the method:
(§1) Rat model system: The rat achilles tendon model is used to test model compounds for biological activity i.e. the ability to promote or inhibit wound healing in vivo. As described in Example 1 below, one Achilles tendon in each rat is transsected surgically, and allowed to heal for periods ranging from 6 hours to 14 days. At each time point, the degree of healing is first assessed by measuring walking speed. The animals are then sacrificed and the tendons are excised and subjected to biomechanical testing and morphological and immunochemical analysis. NOS activity is measured in the excised tendons as above. Finally, body and muscle weight are monitored, and systemic and local toxicity are assessed by macroscopic and microscopic post-mortem examination. It will be understood by a skilled practitioner that any small mammal suitable for testing may be used, including rats, mice, rabbits, guinea pigs, and the like.
(§2) In the following NOS inhibition experiments, animals were fed the indicated chemicals at 1 mg/ml in their drinking water ad libitum for four days prior to surgical division of the right Achilles tendon and throughout the post-operative experimental period, with the exception of experiment (c)*, where the drugs were given from the immediate post-operative period:
(§3) (d) 3 weeks D-NAME (n=8), L-NAME (n=8), L-arginine (n=8), walking speed assessments at days 1,4,8,11,15,18,22, biomechanical assessment, muscle weight and autopsy at day 22.

A short description of series [2]: Body and muscle weight of rats fed the chemicals. It is filed as in vivo, rat. To be noted: for increase of weight: over 22 days, same dose. Here is the method: as §2, §3
All animals were weighed prior to surgery, at weekly intervals, and at sacrifice. After sacrifice the right triceps of rats fed D-NAME (n=8), L-NAME (n=8) or L-arginine (n=8) for three weeks was harvested, weighed for wet weight, lyophilized for dry weight and the water content calculated.

Series [3] relates to cultured bovine chondrocytes. The series is described as follows: NO2- release from cultured bovine chondrocytes (Greiss reaction). The settings on record: for release of NO2-: endotoxin at 1 μg/ml, no constitutive release. It is filed as cell-based.
The subject of series [4] is surgically divided Achilles tendon. The series is described as follows: Rat Achilles tendon healing model with nitric oxide synthase inhibition (morphology, biomechanics). Format: in vivo. To be noted: for distance separating the cut ends of the healing tendon (5-8 mm): 1 mg/ml in drinking water. Here is the method: as §1, §2
(a) 1 week D-NAME (n=9) vs L-NAME (n=11); walking speed and biomechanical analyses at day 7. […]
The rats were housed in beta-chip-lined plastic cages, two animals per cage, with a 12-hour light, 12 hour dark cycle in an animal care facility and fed rat chow and water ad libitum. Anaesthesia was achieved by intraperitoneal injection of 80 mg/kg ketamine (Park Davis, Morris Plains, N.J.) and 5 mg/kg xylazine (Miles Inc, Shawnee Mission, Kans.). All surgical procedures were performed under sterile conditions with the aid of 2.5x microsurgical loops. The surgical procedure was similar to that previously outlined. A 3 cm midline incision was made over the right Achilles tendon and the Achilles tendon and plantaris were isolated from the surrounding fascia. The underlying fascia was disrupted by spreading with a pair of small straight scissors. The tendinous portion of the plantaris was removed and the Achilles tendon was divided cleanly in its mid-substance, 0.5 cm from its calcaneal insertion with a scalpel. The skin was then sutured with two simple nylon sutures of 5-0 ethilon monofilament nylon on a PC-1 cutting needle (Ethicon Inc, N.J.). No operation was performed on the left, uninjured, hind limb. No cast or dressings were applied and the animals were unrestricted during the healing phase. The animals were sacrificed by CO2 inhalation.
One hundred and fifty two harvested lower limbs were placed in phosphate buffered saline (PBS), frozen and stored at −70° C. for an average of seven days prior to testing. On the day prior to testing the specimens were thawed. All extraneous soft and hard tissues were removed by blunt and sharp dissection from the Achilles tendon, formerly intramuscular tendinous fibers and the hind foot. Area measurements of the uninjured and sham operated tendons were made with an area micrometer (Mitutoyo, Tokyo, Japan). Length measurements were made with a 0.02 mm calibrated caliper (Draper, Japan). The formerly intramuscular tendinous fibers were then secured between two strips of white labelling tape with Thick Gel Super Glue® (Super Glue Corporation, N.Y.) such that the distal edge of the tape was 1.0 cm from the calcaneal insertion. The calcaneus was fixed at 45° in an adjustable rubber-gripped clamp (Panavise, Sparks, Nev.). Throughout the procedure care was taken to ensure that neither the Super Glue® nor the self curing plastic contaminated the tendon proper and the specimens were kept moist by application of PBS. Mechanical testing was carried out using a MTS 810 material test system (MTS Systems Corporation, PN). Each specimen underwent a constant velocity ramp to failure test at 1 cm/sec (≈100%/sec). […]

Series [5] can be described thus: Walking speed assessment in a confined walkway. Format: in vivo, rat. Here is the method: as §2
The animals were tested in a confined walkway with a dark shelter at the end. Each rat was held by its chest at the start of the walkway and then allowed to walk/run to the dark shelter at the end of the walkway. The time taken for the rat to cover the first half (21.5 cm) and the total length (43 cm) of the walkway was measured by individuals blinded to the treatment groups.

Setting [6] is: fed from the immediate post-operative period, day 15.

Turning to `COC(=O)[C@H](N)CCCN=C(N)N[N+](=O)[O-]` [D-NAME, Nw-nitro-D-arginine methyl ester], the “systemic changes (palsies, coat, dyspnoea, death, post mortem lesions)” value in series [1] was “failed to display any of the above changes”. This molecule also came in with an increase of weight in series [2] of 30%.
For the molecule TNF-α, in series [3], the “release of NO2-” value is 100 nmol NO2^−/106 cells/24 hours.
On to IL-1β: inflammatory mediator, for which the “release of NO2-” value in series [3] is 100 nmol NO2^−/106 cells/24 hours.
Regarding `O=C(O)CN(CCOCCOCCN(CC(=O)O)CC(=O)O)CC(=O)O` [EGTA], in series [3], the “inhibition of endotoxin-induced NO2- production” value is reported as “not inhibited”.
Regarding `N=C(N)NCCC[C@H](N)C(=O)O` [L-arginine], in series [1], the “systemic changes (palsies, coat, dyspnoea, death, post mortem lesions)” value is recorded as “failed to display any of the above changes”. Further, the “distance separating the cut ends of the healing tendon (5-8 mm)” value in series [4] is given as “did not change”. Also, the “effect on muscle weight” value in series [2] (day 22) is recorded as “no effect”. For the same molecule, the increase of weight in series [2] is 30%.
As for `COC(=O)[C@@H](N)CCCNC(=N)N[N+](=O)[O-]` [L-NAME, Nw-nitro-L-arginine methyl ester], the rats that died result in series [1] (day 21, group of eight rats) is “Two”. Besides, the “post mortem examination findings” value in series [1] (day 22, all rats) was “scant body fat, empty small intestines, myocardial lesions consistent with infarction and granular kidneys”. The “rats that developed severe dyspnoea” value in series [1] (from day 15) is on record as “⅝”. Further, in series [1] (from day 15, all rats), the “coat and peri-orbital changes” value was “lost coat texture and developed peri-orbital rubor”. Also, the “rats that developed motor palsies of upper or lower limbs” value in series [1] (from day 15, group of eight rats) is reported as “Four out of the eight”. In addition, the “distance separating the cut ends of the healing tendon (5-8 mm)” value in series [4] was “did not change”. For the same molecule, the “microscopic appearance of the healing tissue (light microscopy)” value in series [4] (L-NAME versus D-NAME fed rats) is “no subjective differences”. Further, in series [4] (day 7), the “failure load of uninjured Achilles tendon constructs” value is reported as “unaffected”. Also, the “inhibition of cross-sectional area of healing Achilles tendon” value is reported as 30% in series [4] (day 7, given orally 1 mg/ml in drinking water from four days prior to surgery, p<0.01 vs D-NAME); 50% in series [4] (day 15, given orally from four days prior to surgery, p<0.001); 17% in series [4] (day 22, given orally from four days prior to surgery, p<0.05). For the same molecule, in series [4] (day 7, p<0.01), the “reduction in failure load on the formerly divided side” value was 24%. For the same molecule, the failure load result in series [4] (setting [6]) is listed as “failed to show any changes”. Besides, in series [4] (setting [6]), the tendon cross-sectional area result is on record as “failed to show any changes”. For the same molecule, the “toe displacement, maximum displacement, stiffness, energy, modulus or maximum stress of surgically divided or uninjured Achilles constructs” value in series [4] (rat, in vivo) is on record as “did not affect”. In addition, the “behavior and walking speed” value in series [5] (after day 11) is “progressively quieter, slower”. Moreover, in series [5] (setting [6]), the “systemic change: walking speed” value is recorded as “loss of walking speed”. Also, the “behavior or walking speed” value in series [5] (first week of treatment) is recorded as “no changes”. The “inhibition of endotoxin-induced NO2- production” value in series [3] is listed as “completely inhibited”. Besides, the “body weight over the first 15 days of treatment” value in series [2] (1 mg/ml in drinking water) is “either failed to gain weight or lost weight”. In addition, the “lighter than initial preoperative weight” value in series [2] (by day 22, p<0.001) stood at 30%. The “loss in dry muscle weight (right triceps)” value in series [2] (day 22, p<0.01) is 40%. Further, the “loss in wet muscle weight (right triceps)” value in series [2] (day 22, p<0.01) is on record as 30%. Moreover, the “systemic change: weight” value in series [2] (setting [6]) was “weight loss”.
